Experiment: Example 1: phase 3 trial, enavogliflozin 0.3 mg once a day as monotherapy vs placebo for 24 weeks in patients with type 2 diabetes (HbA1c, FPG, C-peptide, body weight, lipids, blood pressure, HOMA, UACR, UGCR, adiponectin, leptin, safety)
Assay type: in vivo, human
Method: When a subject voluntarily gave written consent to participate in this clinical trial, a screening test was conducted. […] However, when the administration of a hypoglycemic agent was interrupted before the clinical trial Visit 1 (screening), at least an 8-week washout period, including the discontinuation period, was required, and during this period, a stable diet and exercise program was followed. Naïve patients were screened without a separate washout period, and the criteria for naïve patients were defined as patients who had not been administered hypoglycemic agents within 24 weeks prior to the date of obtaining written consent. […] In addition, they were instructed to maintain regular exercise and dietary control starting from 8 weeks prior to screening without changing their daily life patterns during the clinical trial period.

Q: Which fasting C-peptide, Mean (SD) (week 6) does the source give for `OC[C@H]1O[C@@H](c2cc(Cc3ccc(C4CC4)cc3)c(Cl)c3c2CCO3)[C@H](O)[C@@H](O)[C@@H]1O` [Enavogliflozin, (2S,3R,4R,5S,6R)-2-(7-chloro-6 (4-cyclopropylbenzyl)-2,3-dihydrobenzofuran-4-yl)-6-(hydroxymethyl)tetrahydro-2H-pyran-3,4,5-triol] here?
A: 0.66 ng/mL

Q: And the “systolic blood pressure change from baseline, LS mean” value (week 6)?
A: −5.38 mmHg

Q: What about the “systolic blood pressure change from baseline, Mean” value (week 6) of the same molecule?
A: −4.81 mmHg

Q: And the “total cholesterol change from baseline, LS mean” value (week 6)?
A: 5.76 mg/dL

Q: What about the “total cholesterol change from baseline, Mean” value (week 6) of the same molecule?
A: 5.75 mg/dL

Q: And the “total cholesterol, Mean” value (week 6)?
A: 166.11 mg/dL

Q: And the “triglycerides change from baseline, LS mean” value (week 6)?
A: -5.05 mg/dL

Q: What about the “triglycerides change from baseline, Mean” value (week 6) of the same molecule?
A: -1.21 mg/dL

Q: And the “triglycerides, Mean” value (week 6)?
A: 116.13 mg/dL

Q: What about the “FPG change from baseline, LS mean difference” value (week 6, vs placebo) of the same molecule?
A: -26.91 mg/dL

Q: And the “HDL-C change from baseline, LS mean difference” value (week 6, vs placebo)?
A: 1.89 mg/dL

Q: And the “HOMA-IR change from baseline, LS mean difference” value (week 6, vs placebo)?
A: −1.81

Q: And the “HOMA-β change from baseline, LS mean difference” value (week 6, vs placebo)?
A: 3.30

Q: And the “HbA1c change from baseline, LS mean difference” value (week 6, vs placebo)?
A: −0.52 % p

Q: What about the “LDL-C change from baseline, LS mean difference” value (week 6, vs placebo) of the same molecule?
A: 0.64 mg/dL

Q: And the “Odds ratio for achieving HbA1c<6.5%” value (week 6, vs placebo)?
A: 3.29

Q: What about the “Odds ratio for achieving HbA1c<7%” value (week 6, vs placebo) of the same molecule?
A: 6.55

Q: And the “Odds ratio for achieving therapeutic response” value (week 6, vs placebo)?
A: 12.84

Q: And the “UACR change from baseline, LS mean difference” value (week 6, vs placebo)?
A: 7.96 g/kg

Q: And the “UGCR change from baseline, LS mean difference” value (week 6, vs placebo)?
A: 52.97 mg/mg

Q: What about the “adiponectin change from baseline, LS mean difference” value (week 6, vs placebo) of the same molecule?
A: 0.26 µg/mL

Q: And the “body weight change from baseline, LS mean difference” value (week 6, vs placebo)?
A: -1.45 kg

Q: What about the “diastolic blood pressure change from baseline, LS mean difference” value (week 6, vs placebo) of the same molecule?
A: −2.43 mmHg

Q: And the fasting C-peptide change from baseline, LS mean difference (week 6, vs placebo)?
A: -0.11 ng/mL

Q: What about the “leptin change from baseline, LS mean difference” value (week 6, vs placebo) of the same molecule?
A: -2.89 ng/mL

Q: What about the “systolic blood pressure change from baseline, LS mean difference” value (week 6, vs placebo) of the same molecule?
A: −4.07 mmHg

Q: What about the “total cholesterol change from baseline, LS mean difference” value (week 6, vs placebo) of the same molecule?
A: 1.95 mg/dL

Q: And the “triglycerides change from baseline, LS mean difference” value (week 6, vs placebo)?
A: -17.69 mg/dL

Q: And the HbA1c change from baseline, LS mean difference (week 6, vs placebo, listed as enavogliflozin)?
A: -0.52 % p

Q: And the “Body weight, Mean” value (week 12)?
A: 66.12 kg

Q: What about the “Diastolic blood pressure, Mean” value (week 12) of the same molecule?
A: 72.83 mmHg

Q: And the “FPG change from baseline, LS mean (SE)” value (week 12)?
A: −30.66(2.93) mg/dL

Q: What about the “FPG change from baseline, Mean (SD)” value (week 12) of the same molecule?
A: −29.34(20.90) mg/dL

Q: What about the “FPG, Mean (SD)” value (week 12) of the same molecule?
A: 111.66(13.55) mg/dL

Q: And the “HDL-C change from baseline, LS mean” value (week 12)?
A: 2.35 mg/dL

Q: And the “HDL-C change from baseline, Mean” value (week 12)?
A: 2.22 mg/dL

Q: And the “HDL-C, Mean” value (week 12)?
A: 54.14 mg/dL

Q: And the “HbA1c change from baseline, LS mean (SE)” value (week 12)?
A: −0.84(0.07) % p

Q: What about the “HbA1c change from baseline, Mean (SD)” value (week 12) of the same molecule?
A: −0.80(0.55) % p

Q: And the “HbA1c, Mean (SD)” value (week 12)?
A: 6.84(0.53) %

Q: What about the “LDL-C change from baseline, LS mean” value (week 12) of the same molecule?
A: -2.31 mg/dL

Q: And the “LDL-C change from baseline, Mean” value (week 12)?
A: -0.09 mg/dL

Q: What about the “LDL-C, Mean” value (week 12) of the same molecule?
A: 95.38 mg/dL

Q: And the “Subjects achieving HbA1c target of <6.5%” value (week 12)?
A: 22(26.83) %

Q: And the “Subjects achieving HbA1c target of <7%” value (week 12)?
A: 54(65.85) %

Q: What about the “Subjects achieving therapeutic glycemic response (HbA1c change >0.5% or HbA1c<7%)” value (week 12) of the same molecule?
A: 70(85.37) %

Q: What about the “Systolic blood pressure, Mean” value (week 12) of the same molecule?
A: 122.06 mmHg

Q: And the “body weight change from baseline, LS mean” value (week 12)?
A: -2.59 kg

Q: And the “body weight change from baseline, Mean” value (week 12)?
A: -2.65 kg

Q: And the “diastolic blood pressure change from baseline, LS mean” value (week 12)?
A: −3.82 mmHg

Q: And the “diastolic blood pressure change from baseline, Mean” value (week 12)?
A: −3.40 mmHg

Q: What about the fasting C-peptide, Mean (SD) (week 12) of the same molecule?
A: 0.64 ng/mL

Q: What about the “systolic blood pressure change from baseline, LS mean” value (week 12) of the same molecule?
A: −6.37 mmHg

Q: What about the “systolic blood pressure change from baseline, Mean” value (week 12) of the same molecule?
A: −5.78 mmHg

Q: What about the “total cholesterol change from baseline, LS mean” value (week 12) of the same molecule?
A: 4.75 mg/dL

Q: What about the “total cholesterol change from baseline, Mean” value (week 12) of the same molecule?
A: 5.99 mg/dL

Q: What about the “total cholesterol, Mean” value (week 12) of the same molecule?
A: 167.40 mg/dL

Q: What about the “triglycerides change from baseline, LS mean” value (week 12) of the same molecule?
A: 6.37 mg/dL

Q: What about the “triglycerides change from baseline, Mean” value (week 12) of the same molecule?
A: 2.90 mg/dL

Q: And the “triglycerides, Mean” value (week 12)?
A: 120.34 mg/dL

Q: And the “FPG change from baseline, LS mean difference” value (week 12, vs placebo)?
A: -32.26 mg/dL

Q: What about the “HDL-C change from baseline, LS mean difference” value (week 12, vs placebo) of the same molecule?
A: 2.36 mg/dL

Q: And the “HOMA-IR change from baseline, LS mean difference” value (week 12, vs placebo)?
A: −1.72

Q: What about the “HOMA-β change from baseline, LS mean difference” value (week 12, vs placebo) of the same molecule?
A: 12.09

Q: What about the “HbA1c change from baseline, LS mean difference” value (week 12, vs placebo) of the same molecule?
A: −0.71 % p

Q: What about the “LDL-C change from baseline, LS mean difference” value (week 12, vs placebo) of the same molecule?
A: -6.00 mg/dL

Q: And the “Odds ratio for achieving HbA1c<6.5%” value (week 12, vs placebo)?
A: 7.58

Q: What about the “Odds ratio for achieving HbA1c<7%” value (week 12, vs placebo) of the same molecule?
A: 6.53

Q: What about the “Odds ratio for achieving therapeutic response” value (week 12, vs placebo) of the same molecule?
A: 14.77

Q: What about the “UACR change from baseline, LS mean difference” value (week 12, vs placebo) of the same molecule?
A: -15.16 g/kg

Q: What about the “UGCR change from baseline, LS mean difference” value (week 12, vs placebo) of the same molecule?
A: 51.21 mg/mg

Q: What about the “adiponectin change from baseline, LS mean difference” value (week 12, vs placebo) of the same molecule?
A: 0.67 µg/mL

Q: And the “body weight change from baseline, LS mean difference” value (week 12, vs placebo)?
A: -1.66 kg

Q: What about the “diastolic blood pressure change from baseline, LS mean difference” value (week 12, vs placebo) of the same molecule?
A: −2.33 mmHg

Q: And the fasting C-peptide change from baseline, LS mean difference (week 12, vs placebo)?
A: -0.12 ng/mL

Q: What about the “leptin change from baseline, LS mean difference” value (week 12, vs placebo) of the same molecule?
A: -3.17 ng/mL

Q: And the “systolic blood pressure change from baseline, LS mean difference” value (week 12, vs placebo)?
A: −3.06 mmHg

Q: What about the “total cholesterol change from baseline, LS mean difference” value (week 12, vs placebo) of the same molecule?
A: -4.04 mg/dL

Q: What about the “triglycerides change from baseline, LS mean difference” value (week 12, vs placebo) of the same molecule?
A: -10.37 mg/dL

Q: What about the “Body weight, Mean” value (week 18) of the same molecule?
A: 65.32 kg

Q: And the “Diastolic blood pressure, Mean” value (week 18)?
A: 72.60 mmHg

Q: And the “FPG change from baseline, LS mean (SE)” value (week 18)?
A: −31.97(3.23) mg/dL

Q: What about the “FPG change from baseline, Mean (SD)” value (week 18) of the same molecule?
A: −30.52(22.34) mg/dL

Q: What about the “FPG, Mean (SD)” value (week 18) of the same molecule?
A: 110.48(14.49) mg/dL

Q: And the “HDL-C change from baseline, LS mean” value (week 18)?
A: 4.18 mg/dL

Q: And the “HDL-C change from baseline, Mean” value (week 18)?
A: 3.62 mg/dL

Q: What about the “HDL-C, Mean” value (week 18) of the same molecule?
A: 55.55 mg/dL

Q: What about the “HbA1c change from baseline, LS mean (SE)” value (week 18) of the same molecule?
A: −0.81(0.09) % p

Q: What about the “HbA1c change from baseline, Mean (SD)” value (week 18) of the same molecule?
A: −0.77(0.67) % p
